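96-well plates; 48 h exposure; 5 concentrations. Endpoints by linear interpolation between flanking doses. Not reached: highest tested concentration assigned. GI50: concentration for 50% inhibition of growth. At the TGI there is no net growth.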
What was measured:
Assay in all cases: NCI tumour cell line growth inhibition, 48 h
HOP-92 NSCLC = system: HOP-92 NSCLC
UACC-257 melanoma = system: UACC-257 melanoma
MDA-MB-231 breast = system: MDA-MB-231 breast
SF-295 CNS = system: SF-295 CNS
HS 578T breast = system: HS 578T breast
BT-549 breast = system: BT-549 breast
CAKI-1 renal = system: CAKI-1 renal
NCI-H460 lung = system: NCI-H460 lung
A549 NSCLC = system: A549 NSCLC
SW-620 colon = system: SW-620 colon

| SMILES | GI50 (HOP-92 NSCLC) [nM] | TGI (HOP-92 NSCLC) [µM] | GI50 (UACC-257 melanoma) [µM] | TGI (UACC-257 melanoma) [µM] | GI50 (MDA-MB-231 breast) [µM] | TGI (MDA-MB-231 breast) [µM] | GI50 (SF-295 CNS) [µM] | TGI (SF-295 CNS) [µM] | GI50 (HS 578T breast) [µM] | TGI (HS 578T breast) [µM] | GI50 (BT-549 breast) [nM] | TGI (BT-549 breast) [µM] | GI50 (CAKI-1 renal) [nM] | TGI (CAKI-1 renal) [µM] | GI50 (NCI-H460 lung) [µM] | TGI (NCI-H460 lung) [µM] | GI50 (A549 NSCLC) [µM] | TGI (A549 NSCLC) [µM] | GI50 (SW-620 colon) [nM] | TGI (SW-620 colon) [µM] |
| --- | --- | --- | --- | --- | --- | --- | --- | --- | --- | --- | --- | --- | --- | --- | --- | --- | --- | --- | --- | --- |
| COC(=O)C1=CN(CC2=CC(=O)C(C)=CC2=O)C=C(C(=O)OC)C1c1ccccc1OC | 9310 | 21.9 | 22.3 | 44.3 | 9.66 | 28 | 24.3 | > 55.5 | 25.9 | 77.8 | 17400 | 41 | 16700 | 37.9 | 33.7 | > 87.7 | 29.3 | > 59.4 | 18500 | > 64.9 |
| NCCCn1c2c(c3ccc([N+](=O)[O-])cc3c1=O)C(=O)c1cc(I)ccc1-2 | 650 | 2.25 | 1.1 | 2.55 | 1.8 | 3.48 | < 0.0218 | 1.53 | 1.98 | 4.33 | 931 | 2.51 | 75.8 | 1.98 | < 0.01 | 1.31 | 0.0133 | 1.74 | < 10 | 1.76 |
| Cc1nc2c(Br)cc(Br)cc2c(=O)n1-c1nnc(-c2cccc(Cl)c2Cl)c(N)n1 | 42400 | > 100 | 24.5 | 65.1 | 13.9 | 49.5 | 13.2 | 41.1 | 16 | 47.2 | 29300 | > 100 | 28500 | 80.6 | 20.3 | > 100 | 25.6 | 85.1 | 33800 | > 100 |
| COc1cc2c3c(n(C)c(=O)c2cc1OC)-c1cc2c(cc1C3=O)OCO2 | – | > 100 | – | > 100 | – | > 100 | – | > 61.3 | – | > 100 | – | > 100 | – | > 53.1 | – | > 100 | – | > 100 | – | > 100 |
| N#CC(I)CS(=O)(=O)c1ccccc1 (stereo not drawn) | 13200 | 26.9 | 17 | 31.2 | 17.3 | 33.9 | > 100 | > 100 | 26.5 | 61.4 | 18800 | 32.9 | 1610 | 3.32 | 21.6 | 42.4 | 22.7 | 47.6 | 1780 | 3.49 |
| O=[N+]([O-])c1ccccc1N=Nc1c(O)[nH]c2c(Cl)cc(Cl)cc12 | – | > 68.2 | – | > 100 | – | > 69.3 | – | > 61 | – | 53 | – | 30.5 | – | > 91.8 | – | > 100 | – | > 100 | – | > 100 |
| CNc1cc2oc(=O)cc(C)c2cc1C | – | > 100 | – | > 100 | – | > 100 | – | > 100 | – | > 100 | – | > 100 | – | > 100 | – | > 100 | – | > 100 | – | > 100 |
| Cc1cccc(NC2=C(Cl)C(=O)c3nc(C)ccc3C2=O)c1 | 1660 | 3.27 | 1.63 | 3.12 | 0.904 | 2.42 | 1.49 | 2.96 | 1.68 | 4.58 | 1410 | 2.77 | 1060 | 2.26 | 1.64 | 3.82 | 2.18 | 6.11 | 1640 | 4.27 |
| Nc1nc(Cl)nc2c1ncn2C1CC(O)C(CO)O1 (stereo not drawn) | – | 24.2 | – | 40.4 | > 79.8 | > 100 | – | 99.9 | > 100 | > 100 | 345 | > 100 | – | 17.3 | – | > 100 | – | > 100 | – | > 100 |
| O=c1[nH]c(-c2cccc(F)c2)cc2cc(F)ccc12 | > 100000 | > 100 | > 100 | > 100 | 2.37 | > 100 | 0.305 | > 100 | 0.381 | > 72.8 | 737 | > 100 | 264 | > 100 | 0.389 | > 100 | 0.798 | > 100 | 174 | > 100 |
| COc1cc(/C=C2\CCCCC3=C2N=C2SC(C)=CN2C3c2cc(OC)c(OC)c(OC)c2)cc(OC)c1OC (stereo not drawn) | 609 | > 100 | 0.403 | > 100 | 4.24 | > 100 | 18 | > 100 | 16 | > 100 | 1150 | > 100 | 73300 | > 100 | 96.1 | > 100 | 20.4 | > 100 | > 100000 | > 100 |
| O=C(Nc1ncc(Cc2cccc(C(F)(F)F)c2)s1)c1ccc2c(c1)OCCO2 | 2970 | > 72.2 | 5.87 | > 100 | 0.445 | 29.7 | 0.244 | 1.84 | 0.306 | > 66.4 | 449 | > 100 | 141 | > 45.9 | 0.349 | > 38.2 | 0.451 | > 100 | 352 | > 100 |

Reference: PubChem BioAssay (NCI)
